Measurements from patent US12240844B2 (Voronoi, Inc., priority 2019, dated 2025).

How the values were obtained:
LRRK2 (G2019S) = LRRK2 (G2019S) (Homo sapiens, UniProt Q5S007, G2019S); assay: LRRK2 G2019S enzyme inhibition, ADP-Glo kinase assay; assay type: biochemical; set-up: purchased SignalChem L10-12GG
Method in brief: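 Purified human LRRK2 G2019S (16 ng) with 25 μM ATP and 0.2 μg substrate, 2 h at 25° C in 40 mM Tris-HCl pH 7.4, 20 mM MgCl2, 0.5 mg/ml BSA, 50 μM DTT; compound at 12 final concentrations from 50 μM downward. ADP-Glo luminescence versus solvent control gave IC50 (nM).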

[1] = target: T1, human GST-DYRK1A (full length) (Homo sapiens, UniProt Q13627); assay: GST-DYRK1A enzyme inhibition, ADP-Glo kinase assay; assay type: biochemical; details: read-out: DYRK1 IC50
T1 construct: purified human GST-DYRK1A (full length, Thermo scientifics) enzyme; GST; purchased Thermo scientifics
Method in brief: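 Full-length human GST-DYRK1A (10 ng) incubated with 10 uM ATP and specific substrate for 1 h at 25° C in 40 mM Tris-HCl pH 7.4, 20 mM MgCl2, 0.5 mg/mL BSA, 50 uM DTT. ADP formation read by ADP-Glo luminescence; IC50 (nM) versus solvent control, triplicate.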

human GST-CLK1 (129-end) = target: T2, human GST-CLK1 (129-end) (Homo sapiens, UniProt P49759); assay: GST-CLK1 enzyme inhibition, ADP-Glo kinase assay; assay type: biochemical; details: ATP 10 uM
T2 construct: purified human GST-CLK1 (129-end, Signalchem) enzyme; GST; purchased Signalchem
T2 sequence (P49759 129-484 limits assumed): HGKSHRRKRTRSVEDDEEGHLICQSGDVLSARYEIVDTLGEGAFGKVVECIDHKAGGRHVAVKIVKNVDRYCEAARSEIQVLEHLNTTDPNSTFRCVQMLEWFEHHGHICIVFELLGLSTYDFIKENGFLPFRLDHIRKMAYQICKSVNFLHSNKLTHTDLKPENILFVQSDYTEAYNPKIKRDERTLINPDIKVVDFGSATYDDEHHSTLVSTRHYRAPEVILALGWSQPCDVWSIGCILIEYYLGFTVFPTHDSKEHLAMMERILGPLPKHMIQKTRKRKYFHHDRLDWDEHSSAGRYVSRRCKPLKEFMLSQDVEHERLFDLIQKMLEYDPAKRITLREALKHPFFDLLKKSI
Method in brief: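 GST-CLK1 (129-end, 3 ng) reacted with 10 uM ATP and substrate in 40 mM Tris-HCl pH 7.4, 20 mM MgCl2, 0.5 mg/mL BSA, 50 uM DTT, 1 h at 25° C. ADP-Glo luminescence normalised to solvent control; IC50 from triplicate data.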

human DYRK1A and Tau = assay: Tau phosphorylation inhibition, ClariCELL Kinase Cell-Based Assay (Carnabio)
Procedure: Tau phosphorylation inhibitory efficacy was measured using the ClariCELL™ Kinase Cell-Based Assay service of Carnabio, located in the United States. The compounds are exposed to human embryonic kidney ([…]) cells transiently expressing human DYRK1A and Tau, and then the cells are lysed to release cellular proteins. At this time, the released Tau is captured on a plate, and the degree of phosphorylation is quantified by ELISA using an antibody specific for Tau phosphorylation.

LRRK2 = LRRK2 (Homo sapiens, UniProt Q5S007); assay: LRRK2 enzyme inhibition, ADP-Glo kinase assay; assay type: biochemical; set-up: purchased Invitrogen PR8604B
Sequence of LRRK2 (Q5S007 970-2527 limits assumed): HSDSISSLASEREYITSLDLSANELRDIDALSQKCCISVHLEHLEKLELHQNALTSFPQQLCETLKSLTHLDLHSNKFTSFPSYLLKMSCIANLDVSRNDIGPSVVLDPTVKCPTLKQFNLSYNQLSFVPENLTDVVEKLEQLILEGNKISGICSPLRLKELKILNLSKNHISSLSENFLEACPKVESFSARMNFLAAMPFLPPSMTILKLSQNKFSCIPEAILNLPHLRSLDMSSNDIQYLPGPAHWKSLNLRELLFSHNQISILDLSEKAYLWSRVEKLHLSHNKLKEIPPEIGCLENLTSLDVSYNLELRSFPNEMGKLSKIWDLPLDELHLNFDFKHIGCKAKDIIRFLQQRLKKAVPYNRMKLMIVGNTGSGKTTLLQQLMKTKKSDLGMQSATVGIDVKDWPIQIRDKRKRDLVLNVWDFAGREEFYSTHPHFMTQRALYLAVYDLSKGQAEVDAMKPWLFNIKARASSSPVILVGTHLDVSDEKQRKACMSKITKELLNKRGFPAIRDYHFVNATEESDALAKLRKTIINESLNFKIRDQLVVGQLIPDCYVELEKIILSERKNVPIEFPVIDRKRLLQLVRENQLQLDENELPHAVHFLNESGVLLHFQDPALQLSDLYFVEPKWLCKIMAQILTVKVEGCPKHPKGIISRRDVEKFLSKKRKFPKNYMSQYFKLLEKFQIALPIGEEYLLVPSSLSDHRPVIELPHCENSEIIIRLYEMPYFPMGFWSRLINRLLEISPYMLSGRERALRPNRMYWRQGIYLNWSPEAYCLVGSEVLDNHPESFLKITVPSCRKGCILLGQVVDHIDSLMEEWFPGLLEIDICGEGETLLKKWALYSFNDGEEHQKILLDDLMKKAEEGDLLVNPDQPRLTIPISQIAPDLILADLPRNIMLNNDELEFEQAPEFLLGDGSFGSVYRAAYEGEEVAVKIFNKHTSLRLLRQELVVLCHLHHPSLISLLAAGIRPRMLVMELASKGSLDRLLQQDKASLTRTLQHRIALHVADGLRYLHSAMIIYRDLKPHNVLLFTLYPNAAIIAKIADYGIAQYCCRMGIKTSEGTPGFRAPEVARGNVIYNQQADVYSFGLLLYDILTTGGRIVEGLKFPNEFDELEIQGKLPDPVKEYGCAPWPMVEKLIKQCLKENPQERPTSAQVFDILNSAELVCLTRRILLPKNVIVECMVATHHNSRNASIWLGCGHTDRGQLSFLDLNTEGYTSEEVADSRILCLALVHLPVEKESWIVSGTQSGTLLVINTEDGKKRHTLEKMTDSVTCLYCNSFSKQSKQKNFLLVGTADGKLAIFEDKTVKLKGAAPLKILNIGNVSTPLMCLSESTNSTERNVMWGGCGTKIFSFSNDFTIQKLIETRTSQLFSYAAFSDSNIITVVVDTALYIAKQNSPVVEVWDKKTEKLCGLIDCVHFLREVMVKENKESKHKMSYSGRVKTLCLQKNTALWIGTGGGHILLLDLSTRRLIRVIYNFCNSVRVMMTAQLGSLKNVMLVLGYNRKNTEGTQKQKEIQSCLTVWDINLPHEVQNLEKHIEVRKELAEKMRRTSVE
Method in brief: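 Purified human LRRK2 (25 ng) in 40 mM Tris-HCl pH7.4, 20 mM MgCl2, 0.5 mg/ml BSA, 50 μM DTT with 10 μM ATP and substrate ([…]), 2 h at 25° C. Final compound 50 to 0.000001024 μM, 12-point dilution. ADP-Glo luminescence vs solvent control; IC50 (nM).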

SHP-77 = SHP-77 cancer cell proliferation inhibition (Cell Titer-Glo); assay type: cell-based; details: Homo sapiens, SHP77, SHP-77 small cell lung cancer cell line, 72 hours
Procedure: (§1) In order to evaluate the cancer cell proliferation inhibitory activity of the compounds of the present invention, the following experiments were performed.
(§2) To evaluate the cancer cell proliferation inhibitory effect, the cell growth rate analysis was performed while culturing MDA-MB-231 cell line (Korean Cell Line Bank #30026) and MDA-MB-468 cell line as the triple-negative breast cancer cell line, and SHP-77 (ATCC #CRL-2195) as the small cell lung cancer cell line in DMEM (HyClone #SH30243) and RPMI medium (HyClone #SH3027.01), respectively. More specifically, the cell lines were each plated at 2000 cells/100 μl in each well of a 96-well flat-bottom plate (coming #3903), and then the example compounds having eleven concentrations which were diluted by ⅓ so that the final concentrations were 10.000000, 3.333333, 1.111111, 0.370370, 0.123457, 0.041152, 0.013717, 0.004572, 0.001524, 0.000508 and 0.000169 μM were treated. After 72 hours, 100 μl of Cell Titer-Glo (Promega G7573) was treated, incubated at RT for 10 minutes, and then luminescence was measured using a microplate reader. The measured luminescence degree was calculated as GI50 using Prism (version 8.2 GraphPad) software.
(§3) In the table below, the following designations were used for the evaluation of proliferation inhibitory activity.

MDA-MB-231 cell line = assay: MDA-MB-231 cancer cell proliferation inhibition (Cell Titer-Glo); assay type: cell-based; details: Homo sapiens, MDA-MB-231 triple-negative breast cancer cell line, 72 hours
Procedure: as §1, §2, §3

Sequence of LRRK2 (G2019S) (Q5S007 970-2527 G2019S limits assumed): as the sequence (Q5S007 970-2527 limits assumed) above, with G1050S counted along it

CCNc1cc(Nc2ccc(C(=O)N3CC[C@H](N4CCOCC4)C3)c3c2OCC3)nc2[nH]cc(C(F)(F)F)c12 [Example 215, (S)-(7-((4-(ethylamino)-3-(trifluoromethyl)-1H-pyrrolo[2,3-b]pyridin-6-yl)amino)-2,3-dihydrobenzofuran-4-yl)(3-morpholinopyrrolidin-1-yl)methanone]
IC50 (LRRK2 (G2019S)): < 100 nM
IC50 [1]: < 100 nM
IC50 (human GST-CLK1 (129-end)): < 100 nM
inhibition at 0.25 µM (human DYRK1A and Tau): 30%
inhibition at 0.5 µM (human DYRK1A and Tau): 70.8%
inhibition at 1 µM (human DYRK1A and Tau): 82%
IC50 (LRRK2): < 100 nM

CCOc1cc(Nc2ccc(S(=O)(=O)N3CCC(N4CCOCC4)CC3)cc2OC)nc2[nH]cc(C(F)(F)F)c12 [Example 232, 4-ethoxy-N-(2-methoxy-4-((4-morpholinopiperidin-1-yl)sulfonyl)phenyl)-3-(trifluoromethyl)-1H-pyrrolo[2,3-b]pyridin-6-amine]
GI50 (SHP-77): 301 to 1000 nM
IC50 [1]: 101 to 300 nM
GI50 (MDA-MB-231 cell line): 301 to 1000 nM
IC50 (human GST-CLK1 (129-end)): 301 to 1000 nM
IC50 (LRRK2): 101 to 300 nM

CNc1cc(Nc2ccc(P3(=O)CCN(C4CCOCC4)CC3)cc2OC)nc2[nH]cc(C(F)(F)F)c12 [Example 216, 4-(3-methoxy-4-((4-(methylamino)-3-(trifluoromethyl)-1H-pyrrolo[2,3-b]pyridin-6-yl)amino)phenyl)-1-(tetrahydro-2H-pyran-4-yl)-1,4-azaphosphinane 4-oxide]
IC50 (LRRK2 (G2019S)): 101 to 300 nM
IC50 [1]: < 100 nM
GI50 (MDA-MB-231 cell line): 301 to 1000 nM
IC50 (human GST-CLK1 (129-end)): < 100 nM
inhibition at 0.25 µM (human DYRK1A and Tau): 22.8%
inhibition at 0.5 µM (human DYRK1A and Tau): 30.3%
inhibition at 1 µM (human DYRK1A and Tau): 49.5%
IC50 (LRRK2): 101 to 300 nM

CNc1cc(Nc2ccc(S(=O)(=O)N3CCC(N4C[C@@H]5C[C@H]4CO5)CC3)cc2OC)nc2[nH]cc(C(F)(F)F)c12 [Example 242, N^6-(4-((4-((1S,4S)-2-oxa-5-azabicyclo[2.2.1]heptan-5-yl)piperidin-1-yl)sulfonyl)-2-methoxyphenyl)-N^4-methyl-3-(trifluoromethyl)-1H-pyrrolo[2,3-b]pyridine-4,6-diamine]
IC50 (LRRK2 (G2019S)): < 100 nM
IC50 [1]: < 100 nM
IC50 (human GST-CLK1 (129-end)): < 100 nM
inhibition at 0.25 µM (human DYRK1A and Tau): 49.8%
inhibition at 0.5 µM (human DYRK1A and Tau): 77.2%
inhibition at 1 µM (human DYRK1A and Tau): 108%
IC50 (LRRK2): < 100 nM

COc1cc(S(=O)(=O)N2CCC(N3CCOCC3)CC2)ccc1Nc1cc(NC(C)C)c2c(C(F)(F)F)c[nH]c2n1 [Example 198, N^4-isopropyl-N^6-(2-methoxy-4-((4-morpholinopiperidin-1-yl)sulfonyl)phenyl)-3-(trifluoromethyl)-1H-pyrrolo[2,3-b]pyridine-4,6-diamine]
GI50 (SHP-77): 301 to 1000 nM
IC50 [1]: 301 to 1000 nM
GI50 (MDA-MB-231 cell line): 301 to 1000 nM
IC50 (human GST-CLK1 (129-end)): 301 to 1000 nM

CCNc1cc(Nc2ccc(S(=O)(=O)N3CCC(N4CCOCC4)CC3)c3c2OCC3)nc2[nH]cc(C(F)(F)F)c12 [Example 104, N^4-ethyl-N^6-(4-((4-morpholinopiperidin-1-yl)sulfonyl)-2,3-dihydrobenzofuran-7-yl)-3-(trifluoromethyl)-1H-pyrrolo[2,3-b]pyridine-4,6-diamine]
GI50 (SHP-77): 101 to 300 nM
IC50 [1]: 301 to 1000 nM
GI50 (MDA-MB-231 cell line): 301 to 1000 nM
IC50 (human GST-CLK1 (129-end)): 301 to 1000 nM
IC50 (LRRK2): < 100 nM

COc1cc(S(=O)(=O)N2CCOCC2)ccc1Nc1cc(NC2CCC2)c2c(C(F)(F)F)c[nH]c2n1 [Example 203, N^4-cyclobutyl-N^6-(2-methoxy-4-(morpholinosulfonyl)phenyl)-3-(trifluoromethyl)-1H-pyrrolo[2,3-b]pyridine-4,6-diamine]
GI50 (SHP-77): 301 to 1000 nM
IC50 [1]: 301 to 1000 nM
GI50 (MDA-MB-231 cell line): 301 to 1000 nM
IC50 (human GST-CLK1 (129-end)): 301 to 1000 nM
IC50 (LRRK2): 301 to 1000 nM

CCNc1cc(Nc2ccc(P3(=O)CCN(C4COC4)CC3)cc2OC)nc2[nH]cc(C(F)(F)F)c12 [Example 39, 4-(4-((4-(ethylamino)-3-(trifluoromethyl)-1H-pyrrolo[2,3-b]pyridin-6-yl)amino)-3-methoxyphenyl)-1-(oxetan-3-yl)-1,4-azaphosphinane 4-oxide]
IC50 [1]: 101 to 300 nM
GI50 (MDA-MB-231 cell line): 301 to 1000 nM
IC50 (human GST-CLK1 (129-end)): 301 to 1000 nM
IC50 (LRRK2): 101 to 300 nM

COCCNc1cc(Nc2ccc(P3(=O)CCN(C4COC4)CC3)cc2OC)nc2[nH]cc(C(F)(F)F)c12 [Example 41, 4-(3-methoxy-4-((4-((2-methoxyethyl)amino)-3-(trifluoromethyl)-1H-pyrrolo[2,3-b]pyridin-6-yl)amino)phenyl)-1-(oxetan-3-yl)-1,4-azaphosphinane 4-oxide]
IC50 [1]: < 100 nM
GI50 (MDA-MB-231 cell line): 301 to 1000 nM
IC50 (human GST-CLK1 (129-end)): < 100 nM
IC50 (LRRK2): < 100 nM

COCCNc1cc(Nc2ccc(P3(=O)CCN(C4CCOCC4)CC3)cc2OC)nc2[nH]cc(C(F)(F)F)c12 [Example 95, 4-(3-methoxy-4-((4-((2-methoxyethyl)amino)-3-(trifluoromethyl)-1H-pyrrolo[2,3-b]pyridin-6-yl)amino)phenyl)-1-(tetrahydro-2H-pyran-4-yl)-1,4-azaphosphinane 4-oxide]
IC50 (LRRK2 (G2019S)): 101 to 300 nM
IC50 [1]: < 100 nM
GI50 (MDA-MB-231 cell line): 301 to 1000 nM
IC50 (human GST-CLK1 (129-end)): 101 to 300 nM
inhibition at 0.25 µM (human DYRK1A and Tau): 9.5%
inhibition at 0.5 µM (human DYRK1A and Tau): 29.2%
inhibition at 1 µM (human DYRK1A and Tau): 33.3%
IC50 (LRRK2): 101 to 300 nM

CNc1cc(Nc2ccc(S(=O)(=O)N3CCOCC3)cc2OC)nc2[nH]ccc12 [Example 10, N^6-(2-methoxy-4-(morpholinosulfonyl)phenyl)-N^4-methyl-1H-pyrrolo[2,3-b]pyridine-4,6-diamine]
IC50 (LRRK2 (G2019S)): 101 to 300 nM
GI50 (SHP-77): 301 to 1000 nM
IC50 [1]: 301 to 1000 nM
GI50 (MDA-MB-231 cell line): 301 to 1000 nM
IC50 (human GST-CLK1 (129-end)): 301 to 1000 nM

O=C(c1ccc(Nc2cc(NC3CC3)c3c(C(F)(F)F)c[nH]c3n2)c2c1OCCO2)N1CCC(N2CCOCC2)CC1 [Example 163, (8-((4-(cyclopropylamino)-3-(trifluoromethyl)-1H-pyrrolo[2,3-b]pyridin-6-yl)amino)-2,3-dihydrobenzo[b] [1,4]dioxin-5-yl)(4-morpholinopiperidin-1-yl)methanone]
IC50 (LRRK2 (G2019S)): < 100 nM
IC50 [1]: 101 to 300 nM
GI50 (MDA-MB-231 cell line): 301 to 1000 nM
IC50 (human GST-CLK1 (129-end)): < 100 nM
IC50 (LRRK2): < 100 nM

CNc1cc(Nc2cc(F)c(S(=O)(=O)N3CCC(N4CCOCC4)CC3)cc2OC)nc2[nH]cc(C(F)(F)F)c12 [Example 265, N^6-(5-fluoro-2-methoxy-4-((4-morpholinopiperidin-1-yl)sulfonyl)phenyl)-N^4-methyl-3-(trifluoromethyl)-1H-pyrrolo[2,3-b]pyridine-4,6-diamine]
IC50 (LRRK2 (G2019S)): < 100 nM
GI50 (SHP-77): 301 to 1000 nM
IC50 [1]: 101 to 300 nM
GI50 (MDA-MB-231 cell line): 301 to 1000 nM
IC50 (human GST-CLK1 (129-end)): 301 to 1000 nM
